Laboratory results reported in patent US20090239841A1, “Diaryl Ureas as CB1 Antagonists” (priority 2004, published 2009).

Target: T1, hCB1 (Homo sapiens, UniProt P21554)
T1 construct: made in house; host or cells: Sf9 insect cells (baculovirus), P2 membranes
Experiment: Agonist-induced GTP binding (GTPγ35S) assay at CB1, Example 8
Type: biochemical
Settings: Table II; IC50 at CB1, GTP binding with 1 nM CP55,940; read-out: IC50
Outline: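 Antagonism read as inhibition of 1 nM CP55,940-stimulated GTPγ35S ([…]) binding, compounds at 10^−10 to 10^−5 M. Baculovirus-infected Sf9 membranes bearing hCB1 plus G-protein subunits, 60 min room-temperature incubation with 5 μM GDP. Filtration and scintillation counting; data as percent over basal.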

T1 sequence (P21554 whole entry): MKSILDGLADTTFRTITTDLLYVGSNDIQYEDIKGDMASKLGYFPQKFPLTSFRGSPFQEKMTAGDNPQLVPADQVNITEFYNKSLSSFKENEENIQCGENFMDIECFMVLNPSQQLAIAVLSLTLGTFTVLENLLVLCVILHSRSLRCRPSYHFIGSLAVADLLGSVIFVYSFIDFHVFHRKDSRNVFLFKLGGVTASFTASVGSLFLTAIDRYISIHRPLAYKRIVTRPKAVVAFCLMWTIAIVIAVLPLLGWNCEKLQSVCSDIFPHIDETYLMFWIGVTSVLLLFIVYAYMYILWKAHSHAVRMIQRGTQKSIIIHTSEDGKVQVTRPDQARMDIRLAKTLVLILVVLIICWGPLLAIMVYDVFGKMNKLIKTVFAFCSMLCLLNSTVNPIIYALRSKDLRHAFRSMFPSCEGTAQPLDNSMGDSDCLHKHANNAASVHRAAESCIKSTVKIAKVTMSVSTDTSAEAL

SMILES | IC50 [µM]
Cc1ccc(NC(=O)Nc2cccc(-c3ccnc(C)n3)c2)cc1 [Compound 164, N-(4-methylphenyl)-N′-[3-(2-methylpyrimidin-4-yl)phenyl]urea] | < 2
Cc1cccc(NC(=O)Nc2ccc(-n3cnc(Cl)c3Cl)cc2)c1 [Compound 165, N-{4-(4,5-dichloro-1H-imidazol-1-yl)phenyl]-N′-(3-methylphenyl)urea] | < 2
Cc1ccc(NC(=O)Nc2ccc(-n3cnc(Cl)c3Cl)cc2)cc1 [Compound 166, N-[4-(4,5-dichloro-1H-imidazol-1-yl)phenyl]-N′-(4-methylphenyl)urea] | < 2
O=C(Nc1ccccc1)Nc1ccc(N2CCCCC2)cc1 [Compound 167, N-phenyl-N′-(4-piperidin-1-ylphenyl)urea] | < 2
Cc1cccc(NC(=O)Nc2ccc(N3CCCCC3)cc2)c1 [Compound 168, N-(3-methylphenyl)-N′-(4-piperidin-1-ylphenyl)urea] | < 2
Cc1ccc(NC(=O)Nc2ccc(N3CCCCC3)cc2)cc1 [Compound 169, N-(4-methylphenyl)-N′-(4-piperidin-1-ylphenyl)urea] | < 2
Cc1ccc(NC(=O)Nc2cc3ccccc3c(Br)n2)cc1 [Compound 170, N-(1-bromoisoquinolin-3-yl)-N′-(4-methylphenyl)urea] | < 2
Cc1ccc(NC(=O)Nc2ccc(C)cc2)cc1 [Compound 171, N,N′-bis(4-methylphenyl)urea] | < 2
Cc1ccc(NC(=O)Nc2ccc(F)cc2)cc1 [Compound 172, N-(4-fluorophenyl)-N′-(4-methylphenyl)urea] | < 2
Cc1ccc(NC(=O)Nc2cccc(F)c2)cc1 [Compound 173, N-(3-fluorophenyl)-N′-(4-methylphenyl)urea] | < 2
CCc1cccc(NC(=O)Nc2ccc(C)cc2)c1 [Compound 174, N-(3-ethylphenyl)-N′-(4-methylphenyl)urea] | < 2
CCc1ccc(NC(=O)Nc2ccc(F)cc2)cc1 [Compound 175, N-(4-ethylphenyl)-N′-(4-fluorophenyl)urea] | < 2
CC(C)c1ccc(NC(=O)Nc2ccc(F)cc2)cc1 [Compound 176, N-(4-fluorophenyl)-N′-(4-isopropylphenyl)urea] | < 2
CCCc1ccc(NC(=O)Nc2cccc(F)c2)cc1 [Compound 177, N-(3-fluorophenyl)-N′-(4-propylphenyl)urea] | < 2
CCCc1ccc(NC(=O)Nc2ccc(F)cc2)cc1 [Compound 178, N-(4-fluorophenyl)-N′-(4-propylphenyl)urea] | < 2
CCc1ccc(NC(=O)Nc2cccc(CC)c2)cc1 [Compound 179, N-(3-ethylphenyl)-N′-(4-ethylphenyl)urea] | < 2

SMILES | IC50 [µM]
CCc1ccc(NC(=O)Nc2cccc(Cl)c2)cc1 [Compound 180, N-(3-chlorophenyl)-N′-(4-ethylphenyl)urea] | < 2
CCc1ccc(NC(=O)Nc2ccc(C(C)C)cc2)cc1 [Compound 181, N-(4-ethylphenyl)-N′-(4-isopropylphenyl)urea] | < 2
CC(C)c1ccc(NC(=O)Nc2ccc(Cl)cc2)cc1 [Compound 182, N-(4-chlorophenyl)-N′-(4-isopropylphenyl)urea] | < 2
CCCc1ccc(NC(=O)Nc2cccc(CC)c2)cc1 [Compound 183, N-(3-ethylphenyl)-N′-(4-propylphenyl)urea] | < 2
CCCc1ccc(NC(=O)Nc2cccc(Cl)c2)cc1 [Compound 184, N-(3-chlorophenyl)-N′-(4-propylphenyl)urea] | < 2
CCCc1ccc(NC(=O)Nc2ccc(Cl)cc2)cc1 [Compound 185, N-(4-chlorophenyl)-N′-(4-propylphenyl)urea] | < 2
Cc1ccc(NC(=O)Nc2cccc(C#N)c2)cc1 [Compound 186, N-(3-cyanophenyl)-N′-(4-methylphenyl)urea] | < 2
CC(=O)c1ccc(NC(=O)Nc2ccc(C)cc2)cc1 [Compound 187, N-(4-acetylphenyl)-N′-(4-methylphenyl)urea] | < 2
CC(=O)c1ccc(NC(=O)Nc2cccc(F)c2)cc1 [Compound 188, N-(4-acetylphenyl)-N′-(3-fluorophenyl)urea] | < 2
CC(=O)c1ccc(NC(=O)Nc2ccc(F)cc2)cc1 [Compound 189, N-(4-acetylphenyl)-N′-(4-fluorophenyl)urea] | < 2
CCc1cccc(NC(=O)Nc2ccc(C(C)=O)cc2)c1 [Compound 190, N-(4-acetylphenyl)-N′-(3-ethylphenyl)urea] | < 2
CC(=O)c1ccc(NC(=O)Nc2cccc(Cl)c2)cc1 [Compound 191, N-(4-acetylphenyl)-N′-(3-chlorophenyl)urea] | < 2
CC(=O)c1ccc(NC(=O)Nc2ccc(Cl)cc2)cc1 [Compound 192, N-(4-acetylphenyl)-N′-(4-chlorophenyl)urea] | < 2
CC(C)c1ccc(NC(=O)Nc2ccc(C#N)cc2)cc1 [Compound 193, N-(4-cyanophenyl)-N′-(4-isopropylphenyl)urea] | < 2
CC(C)c1ccc(NC(=O)Nc2cccc(C#N)c2)cc1 [Compound 194, N-(3-cyanophenyl)-N′-(4-isopropylphenyl)urea] | < 2
CC(=O)c1cccc(NC(=O)Nc2ccc(C(C)C)cc2)c1 [Compound 195, N-(3-acetylphenyl)-N′-(4-isopropylphenyl)urea] | < 2

More lines, now with the values ahead:

IC50 [µM] | SMILES
< 2 | O=C(Nc1ccc(OC(F)F)cc1)Nc1cccc(-c2cocn2)c1 [Compound 138]
< 2 | N#Cc1cc(NC(=O)Nc2ccc(OC(F)F)cc2)ccc1F [Compound 139, N-(3-cyano-4-fluorophenyl)-N′-[4-(difluoromethoxy)phenyl]urea]
< 2 | O=C(Nc1ccc(OC(F)F)cc1)Nc1ccc(C(=O)c2ccccc2)cc1 [Compound 140, N-(4-benzoylphenyl)-N′-[4-(difluoromethoxy)phenyl]urea]
< 2 | O=C(Nc1ccc(OC(F)F)cc1)Nc1cccc2cccc(Cl)c12 [Compound 141, N-(8-chloro-1-naphthyl)-N′-[4-(difluoromethoxy)phenyl]urea]
< 2 | Cc1ccc2cc(NC(=O)Nc3ccc(OC(F)F)cc3)ccc2n1 [Compound 142, N-[4-(difluoromethoxy)phenyl]-N′-(2-methylquinolin-6-yl)urea]
< 2 | O=C(Nc1cccc(OC(F)F)c1)Nc1ccc(N2CCOCC2)c(Cl)c1 [Compound 143, N-(3-chloro-4-morpholin-4-ylphenyl)-N′-[3-(difluoromethoxy)phenyl]urea]
< 2 | CC(C)Oc1ccc(NC(=O)Nc2cccc(OC(F)F)c2)cc1 [Compound 144, N-[3-(difluoromethoxy)phenyl]-N′-(4-isopropoxyphenyl)urea]
< 2 | O=C(Nc1cccc(OC(F)F)c1)Nc1cccc(OC(F)(F)F)c1 [Compound 145, N-{3-(difluoromethoxy)phenyl]-N′-[3-(trifluoromethoxy)phenyl]urea]
< 2 | Cc1noc(C)c1-c1cccc(NC(=O)Nc2cccc(OC(F)F)c2)c1 [Compound 146, N-[3-(difluoromethoxy)phenyl]-N′-[3-(3,5-dimethylisoxazol-4-yl)phenyl]urea]
< 2 | Cc1cc(-c2cccc(NC(=O)Nc3cccc(OC(F)F)c3)c2)cc(C)n1 [Compound 147]
< 2 | CCOC(=O)c1cccc(NC(=O)Nc2ccc(OC(F)F)cc2)c1 [Compound 148, ethyl 3-[({[4-(difluoromethoxy)phenyl]amino}carbonyl)amino]benzoate]
< 2 | O=C(Nc1ccc(OC(F)F)cc1)Nc1cccnc1Cl [Compound 149, N-(2-chloropyridin-3-yl)-N′-[4-(difluoromethoxy)phenyl]urea]
< 2 | Cc1ccnc(NC(=O)Nc2ccc(OC(F)F)cc2)c1 [Compound 151, N-[4-(difluoromethoxy)phenyl]-N′-(4-methylpyridin-2-yl)urea]
< 2 | CCc1ccc(NC(=O)Nc2ccc(F)c(C#N)c2)cc1 [Compound 152, N-(3-cyano-4-fluorophenyl)-N′-(4-ethylphenyl)urea]
< 2 | CCc1ccc(NC(=O)Nc2ccc(Cl)nc2)cc1 [Compound 153, N-(6-chloropyridin-3-yl)-N′-(4-ethylphenyl)urea]
< 2 | CCCc1ccc(NC(=O)Nc2cccc(C)c2)cc1 [Compound 154, N-(3-methylphenyl)-N′-(4-propylphenyl)urea]
< 2 | CCCCc1ccc(NC(=O)Nc2cccc(C)c2)cc1 [Compound 155, N-(4-butylphenyl)-N′-(3-methylphenyl)urea]
< 2 | Cc1cccc(NC(=O)Nc2cccc(OC(C)C)c2)c1 [Compound 156, N-(3-isopropoxyphenyl)-N′-(3-methylphenyl)urea]
< 2 | Cc1ccc(NC(=O)Nc2ccc(C(C)C)cc2)cc1 [Compound 157, N-(4-isopropylphenyl)-N′-(4-methylphenyl)urea]
< 2 | CCOc1ccc(NC(=O)Nc2cccc(C)c2)cc1 [Compound 158, N-(4-ethoxyphenyl)-N′-(3-methylphenyl)urea]
< 2 | CCCOc1ccc(NC(=O)Nc2cccc(C)c2)cc1 [Compound 159, N-(3-methylphenyl)-N′-(4-propoxyphenyl)urea]
< 2 | Cc1ccc(NC(=O)Nc2ccc(C)c(F)c2)cc1 [Compound 160, N-(3-fluoro-4-methylphenyl)-N′-(4-methylphenyl)urea]
< 2 | O=C(Nc1ccccc1)Nc1ccc2c(c1)CCC2 [Compound 161, N-(2,3-dihydro-1H-inden-5-yl)-N′-phenylurea]
< 2 | Cc1cccc(NC(=O)Nc2ccc(N3CCOCC3)c(Cl)c2)c1 [Compound 162, N-(3-chloro-4-morpholin-4-ylphenyl)-N′-(3-methylphenyl)urea]
< 2 | Cc1cccc(NC(=O)Nc2cccc(-c3ccnc(C)n3)c2)c1 [Compound 163, N-(3-methylphenyl)-N′-[3-(2-methylpyrimidin-4-yl)phenyl]urea]
